Paper PMC2680598 (PLoS ONE, 2009)
Several values for one entry are separate records, joined by “and”; a condition that tells them apart may be missing. Equal values may be shown once. Entries after “also recorded” stand apart in the source; their conditions may differ. Read-outs that look alike come from different tables or passages of the source.

What was measured:
mtFabH [1] = target: T1, mtFabH (Mycobacterium tuberculosis, UniProt P9WNG3); test: mtFabH inhibition assay; assay type: biochemical
M. tuberculosis H37Rv [2] = test: M. tuberculosis H37Rv inhibition assays (MIC); assay type: cell-based, Mycobacterium tuberculosis; conditions: for MIC: M. tuberculosis H37Rv
FAS-II = FAS-II assay; assay type: biochemical
Protocol: (§1) The molecules under investigation were designed to inhibit mtFabH in the mycobacterial FAS-II system, with selectivity over the related mammalian FAS-I system. To examine selectivity, the compounds were assessed using the procedures of Brown et al. and Slayden et al..
(§2) FAS-I and FAS-II experiments were conducted as per Slayden et al. (1996) using the 40–80% ammonium sulphate fraction. The standard reaction mixture for the incorporation of radioactivity from [2-^14C]malonyl-CoA into C16 to C24 fatty acids catalysed by FAS-I was composed as follows: 100 mM Tris.HCl pH 7.9, 5 mM EDTA, 5 mM dithiothreitol, 300 µM acetyl-CoA, 100 µM NADPH, 100 µM NADH, 1 µM flavin mononucleotide, 500 µM α-cyclodextrin, 300 µM CoA-SH, 100,000 cpm of [2-^14C] malonyl-CoA (specific activity 53 Ci/mol), test compound (0.5–200 µg/ml) and 2 mg of cytosolic enzyme preparation in a total volume of 500 µl. Similarly, the standard reaction mixture for incorporation of radioactivity from [2-^14C]malonyl-CoA into C24 to C30 fatty acids catalysed by FAS-II contained the following: 100 mM potassium phosphate buffer (pH 7.0), 5 mM EDTA, 5 mM dithiothreitol, 10 µM palmitoyl-CoA, 140 µM NADPH, 140 µM NADH, 100 µg of AcpM, 40 µM malonyl-CoA, 200,000 cpm of [2-^14C]malonyl-CoA (specific activity 53 Ci/mol), test compound (0.5–200 µg/ml) and 200 mg of cytosolic enzyme preparation in a total volume of 250 µl. In both the FAS-I and FAS-II assays, reactions were performed in triplicate at 37°C for 30 min and terminated by the addition of 250 µl of 20% potassium hydroxide in 50% methanol at 100°C for 45 min. Following acidification with 150 µl of 6 M HCl, the resultant ^14C-labelled fatty acids were extracted three times with petroleum ether. The organic extracts were pooled, washed once with an equal volume of water, and dried in a scintillation vial prior to counting.

FAS-I = FAS-I assay; assay type: biochemical
Protocol: as §1
as §2, with “In both the FAS-I and FAS-II assays, reactions were performed in triplicate at 37°C for 30 min and terminated by the addition of 250 µl of 20% potassium hydroxide in 50% methanol at 100°C for 45 min. Following acidification with 150 µl of 6 M HCl, the resultant ^14C-labelled fatty acids were extracted three times with petroleum ether. The organic extracts were pooled, washed once with an equal volume of water, and dried in a scintillation vial prior to counting.” left out

M. tuberculosis H37Rv [3] = conditions: cited from earlier work
[4] = no reference given; cited from earlier work
[5] = mouse model; no reference given; cited from earlier work
mtFabH [6] = target: T1, mtFabH; conditions: cited from earlier work
[7] = N/A = no inhibition observed at 200 µg/ml, read-out: mtFabH IC50 (class N/A)
[8] = Mycobacterium tuberculosis, N/A = no inhibition observed at 200 µg/ml, read-out: TB MIC (class N/A)
[9] = Mycobacterium tuberculosis, read-out: TB MIC
[10] = read-out: mtFabH IC50 (converted)

T1 sequence (P9WNG3 2-335): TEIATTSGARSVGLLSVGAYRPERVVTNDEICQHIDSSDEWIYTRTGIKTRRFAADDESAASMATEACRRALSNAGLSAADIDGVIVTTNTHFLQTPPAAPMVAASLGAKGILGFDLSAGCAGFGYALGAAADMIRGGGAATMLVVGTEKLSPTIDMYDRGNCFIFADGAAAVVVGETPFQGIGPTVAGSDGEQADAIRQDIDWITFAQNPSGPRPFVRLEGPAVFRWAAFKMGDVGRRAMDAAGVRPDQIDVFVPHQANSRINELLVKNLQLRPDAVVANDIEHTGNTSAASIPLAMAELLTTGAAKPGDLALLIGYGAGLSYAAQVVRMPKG

| SMILES | inhibition of mtFabH (in words) (mtFabH [1]) | IC50 (mtFabH [1]; [7]) [µM] | melting point [°C] | MIC (M. tuberculosis H37Rv [2]; [8]) [µg/mL] | inhibition of M. tuberculosis H37Rv (in words) (M. tuberculosis H37Rv [2]) | other results |
| --- | --- | --- | --- | --- | --- | --- |
| Cc1sc(NC(=O)CBr)nc1C(=O)O [Compound 16, 2-(2-Bromoacetamido)-5-methylthiazole-4-carboxylic acid] | failed to inhibit | > 717 | 218 to 220 | > 200 | – | – |
| Cc1sc(N)nc1C(=O)O [Compound 9, 2-amino-5-methylthiazole-4-carboxylic acid] | – | > 1260 | – | – | – | MIC (M. tuberculosis H37Rv [2]; [9]): 0.06 µg/mL and 0.35 µM |
| COC(=O)c1nc(N)sc1-c1cccc(Cl)c1 [Compound 8, Methyl 2-amino-5-(3-chlorophenyl)thiazole-4-carboxylate] | – | > 744 | 229 to 232 | > 200 | inactive | – |
| O=C(CBr)Nc1nc(C(=O)O)c(Cc2ccccc2)s1 [Compound 19, 5-Benzyl-2-(2-bromoacetamido)thiazole-4-carboxylic acid] | – | – | 220 to 222 | > 200 | – | IC50 (mtFabH [1]; [10]): 633 µM and 718 µM; inhibition of FAS-II (in words) (FAS-II): inhibited both FAS-I and FAS-II; inhibition of FAS-I (in words) (FAS-I): inhibited both FAS-I and FAS-II |
| Nc1nc(C(=O)O)c(Cc2ccccc2)s1 [Compound 12, 2-amino-5-benzylthiazole-4-carboxylic acid] | – | > 854 | 300 to 302 | > 200 | inactive | – |
| O=C(CBr)Nc1nc(C(=O)O)c(-c2ccccc2)s1 [Compound 17, 2-(2-Bromoacetamido)-5-phenylthiazole-4-carboxylic acid] | failed to inhibit | > 586 | 208 to 210 | > 200 | – | – |
| Nc1nc(C(=O)O)c(-c2cccc(Cl)c2)s1 [Compound 11, 2-amino-5-(3-chlorophenyl)thiazole-4-carboxylic acid] | – | > 785 | 242 to 244 | – | active | MIC (M. tuberculosis H37Rv [2]; [9]): 32 µg/mL and 125 µM |
| COC(=O)c1nc(NC(=O)CBr)sc1Cc1ccccc1 [Compound 15, Methyl 5-benzyl-2-(2-bromoacetamido)thiazole-4-carboxylate] | – | – | 218 to 220 | > 200 | – | IC50 (mtFabH [1]; [10]): 160 µM; inhibition of FAS-II (in words) (FAS-II): failed to inhibit the FAS enzymes; inhibition of FAS-I (in words) (FAS-I): failed to inhibit the FAS enzymes |
| NNC(=O)c1ccncc1 [INH, isoniazid] | – | – | – | – | – | MIC (M. tuberculosis H37Rv [3]): 0.25 µg/ml and 1.8 µM; logP [4]: −1.1 |
| COC(=O)c1nc(NC(=O)CBr)sc1-c1ccccc1 [Compound 14, Methyl 2-(2-bromoacetamido)-5-phenylthiazole-4-carboxylate] | active against mtFabH | – | 218 to 220 | > 200 | – | IC50 (mtFabH [1]; [10]): 3.1 µM and 3.22 µM; inhibition of FAS-II (in words) (FAS-II): selective against FAS-II |
| COC(=O)c1nc(NC(=O)CBr)sc1-c1cccc(Cl)c1 [Compound 3, methyl 2-(2-bromoacetamido)-5-(3-chlorophenyl)thiazole-4-carboxylate] | active against mtFabH | – | – | > 200 | not active | IC50 (mtFabH [1]; [10]): 2.44 µM and 2.43 µM; inhibition of FAS-II (in words) (FAS-II): selective against FAS-II |
| COC(=O)c1nc(N)sc1-c1ccccc1 [Compound 7, Methyl 2-amino-5-phenylthiazole-4-carboxylate] | – | > 854 | 218 to 221 | > 200 | inactivity | – |
| COC(=O)c1nc(N)sc1C [Compound 6, Methyl 2-amino-5-methylthiazole-4-carboxylate] | – | > 1160 | 165 to 168 | – | – | MIC (M. tuberculosis H37Rv [2]; [9]): 16 µg/mL and 93 µM |
| Nc1nc(C(=O)O)c(-c2ccccc2)s1 [Compound 10, 2-amino-5-phenylthiazole-4-carboxylic acid] | – | > 908 | 242 to 243 | > 200 | inactive | – |
| COC(=O)c1nc(NC(=O)CBr)sc1C [Compound 13, Methyl 2-(2-bromoacetamido)-5-methylthiazole-4-carboxylate] | fails to inhibit | > 682 | 220 to 222 | > 200 | – | – |
| COC(=O)c1nc(N)sc1Cc1ccccc1 [Compound 2, methyl 2-amino-5-benzylthiazole-4-carboxylate] | no activity | > 805 | – | – | – | MIC (M. tuberculosis H37Rv [2]; read-out: TB MIC): 0.24 µM; MIC (M. tuberculosis H37Rv [2]; [9]): 0.06 µg/mL and 0.24 µM |
| C=C/C(C)=C/[C@@]1(C)SC(=O)C(C)=C1O [1 (TLM), thiolactomycin] | – | – | – | – | – | oral availability [5]: orally available; toxicity [5]: non-toxic; MIC (M. tuberculosis H37Rv [3]; listed as TLM): 13 µg/ml and 62.5 µM |
| O=C(CBr)Nc1nc(C(=O)O)c(-c2cccc(Cl)c2)s1 [Compound 18, 2-(2-Bromoacetamido)-5-(3-chlorophenyl)thiazole-4-carboxylic acid] | failed to inhibit; also recorded: inactive | > 532 | 228 to 230 | > 200 | – | – |
| CC1=C(O)C(C)(Cc2ccc(-c3ccc(C(=O)O)cc3)cc2)SC1=O (centres unmarked) [Compound 4] | – | – | – | – | – | IC50 (mtFabH [6]): 3.1 µM and 3 µM |
